Patent publication US10882845B2, “Crystal form of deuterated AZD9291, preparation method therefor, and use thereof” (TYK MEDICINES INC., priority 2017, dated 2021)
Where a name gives a salt, the structure may show the parent alone. One block for each compound: values may come before it.

Columns and labels:
[1] = Passage through the blood-brain barrier into the brain; format: in vivo; details: in the body
Text: At present, some deuterated AZD9291 compounds have been reported in CN104140418B and CN105237515A, but no crystal forms of the pharmaceutically acceptable salt of deuterated AZD9291 have been reported. A crystal form is a solid state of a drug. The study of the drug crystal form is the study of the basic state of the drug. It is impossible to find a crystal form of a drug (solid material) that is more suitable for treating the disease, unless having a full and comprehensive understanding of the crystal form of the chemical drug. The crystal form of a drug can affect physical and chemical properties of the drug, and directly affect the clinical basis of the drug to play a role in the treatment of disease. At the same time, due to the solubility of some drugs, such drugs shall be made into a pharmaceutically acceptable salt, which can greatly improve its solubility and improve the absorption and utilization of drugs. The applicant has been engaged in the research of drugs for lung cancer, started drug research on EGFR targets very early, and has obtained a series of research results6, such as patent applications CN102659692, U.S. Ser. No. 08/916,572, CN107382879, WO2017219500 and WO2018050052. […] Therefore, it has no effect on tumors metastasized to the brain. […]

[2] = Stability at room temperature; format: physicochemical; details: for Purity (HPLC) / character (visual inspection) / hygroscopicity (visual inspection): room temperature
Text: The crystal form of the compound of the formula (I) or the formula (II) obtained by the method 1 or the method 2 of the present invention is not changed in moisture absorption or the like after being left at room temperature for 1 month. […] Its purity was as high as 99.83%, and the content of each single impurity was below 0.1%, which was suitable for the subsequent development of active pharmaceutical ingredient and preparations as well as subsequent pharmacokinetic experiments and zoological experiments.
The crystal form of deuterated AZD9291 mesylate prepared in the present invention was placed in a laboratory at room temperature, and the stability at room temperature was examined.

in vivo = details: rat, po
Text: Moreover, a single impurity is below 0.1%, which is in line with requirements for the development of API and CMC.
The high bioavailability of oral administration proves that this crystal form is suitable for the development of oral preparations.

[3] = Accelerated stability test (drug accelerated stability test chamber, 40° C., relative humidity 75%); format: physicochemical; details: 75% RH
Experimental: The stability of the crystal form of the compound represented by the formula (I) or the formula (II) was further measured, and the apparatus used was a drug accelerated stability test chamber; the accelerated test condition was 40° C., and the relative humidity was 75%. After an accelerated test for six months in the drug accelerated stability test chamber was completed, a sample of the crystal form of the compound of the formula (I) or the formula (II) was obtained and subjected to X-ray powder diffraction analysis, and the obtained X-ray powder diffraction pattern was as shown in FIG. 2.

[4] = as above; format: physicochemical; details: 75% RH; remark: listed apart in the source

SMILES: C=CC(=O)Nc1cc(Nc2nccc(-c3cn(C)c4ccccc34)n2)c(OC)cc1N(C)CCN(C)C [compound of formula III]
passage through the blood-brain barrier [1]: can enter the brain through the blood-brain barrier

change in moisture absorption or the like ([2]; left at room temperature for 1 month): not changed | Purity (HPLC) ([2]; day 0): 99.73% | character (visual inspection) ([2]; day 0): off-white powder | Purity (HPLC) ([2]; day 15): 99.70% | character (visual inspection) ([2]; day 15): off-white powder | hygroscopicity (visual inspection) ([2]; day 15): (no hygroscopicity) | Purity (HPLC) ([2]; day 30): 99.74% | character (visual inspection) ([2]; day 30): off-white powder | hygroscopicity (visual inspection) ([2]; day 30): (no hygroscopicity) | AUC (in vivo): 1270 ng·h/mL | bioavailability (in vivo): 30.9% | highest blood concentration (in vivo): 117 ng/mL | crystal form (X-ray powder diffraction) ([3]; month 6, listed as crystal form of the compound represented by the formula (I) or the formula (II)): no crystal | crystal form (X-ray powder diffraction) ([3]; month 6, listed as crystal form of the present invention): maintained | character (visual inspection) ([4]; month 0): off-white | compound purity (HPLC) ([4]; month 0): 99%, | deuteration rate (HNMR) ([4]; month 0): rate 99% | character (visual inspection) ([4]; month 1): off-white, | compound purity (HPLC) ([4]; month 1): 99%, | deuteration rate (HNMR) ([4]; month 1): rate 99% | hygroscopicity (visual inspection) ([4]; month 1): no | character (visual inspection) ([4]; month 2): off white, | compound purity (HPLC) ([4]; month 2): 99%, | deuteration rate (HNMR) ([4]; month 2): rate 99% | hygroscopicity (visual inspection) ([4]; month 2): no | character (visual inspection) ([4]; month 3): off white, | compound purity (HPLC) ([4]; month 3): 99%, | deuteration rate (HNMR) ([4]; month 3): rate 99% | hygroscopicity (visual inspection) ([4]; month 3): no | character (visual inspection) ([4]; month 4): off white, | compound purity (HPLC) ([4]; month 4): 99%, | deuteration rate (HNMR) ([4]; month 4): rate 99% | hygroscopicity (visual inspection) ([4]; month 4): no | character (visual inspection) ([4]; month 6): off white, | compound purity (HPLC) ([4]; month 6): 99%, | deuteration rate (HNMR) ([4]; month 6): rate 99% | hygroscopicity (visual inspection) ([4]; month 6): no
SMILES: [2H]C([2H])([2H])n1cc(-c2ccnc(Nc3cc(NC(=O)C=C)c(N(C)CCN(C)C)cc3OC)n2)c2ccccc21 [deuterated AZD9291 mesylate crystal form]

SMILES: C=CC(=O)Nc1cc(Nc2nccc(-c3c[nH]c4ccccc34)n2)c(OC)cc1N(C)CCN(C)C [AZ5104]
passage through the blood-brain barrier [1]: cannot pass through the blood-brain barrier
